One assay concerns the target T1, RNase B (Bos taurus, UniProt P61823).
T1 construct: Fetuin (from fetal calf serum) and RNase B (from bovine pancreas) were purchased from Sigma-Aldrich; purchased Sigma-Aldrich; host or cells: bovine pancreas (natural source)
T1 sequence (P61823 27-150): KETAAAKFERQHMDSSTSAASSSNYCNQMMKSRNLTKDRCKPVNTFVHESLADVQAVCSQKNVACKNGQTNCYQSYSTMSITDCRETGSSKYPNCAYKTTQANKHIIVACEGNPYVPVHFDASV
Nature of the assay: Immobilization of RNase B on functionalized slides, read out with Con A-FITC fluorescence. Type of assay: biochemical, bovine. The following applies: for Con A-FITC signal of RNase B on probe-functionalized slides: slides incubated with RNase B then treated with glycerol, compared to BA-tosyl-treated slides, FIG. 6(b), 6(c); for Con A-FITC intensity after release of BA-tosylate by polyol: RNase B on BA-tosyl slides, glycerol 10%, sorbitol 100 mM, compared to galactose 100 mM, FIG. 6(a). Here is the method: The aforementioned azide-functionalized slide was rinsed twice with sodium phosphate buffer (25 mM, pH 8.0) and immersed in the same buffer (45 mL). To effect the Cu(I)-catalyzed 1,2,3-triazole cycloaddition, BA-tosyl 1 (or compound 7 or 8) was added to the reaction mixture to afford a final concentration of 5 mM and treated with TCEP (2 mM) and TBTA (2 mM). Then, an aqueous solution of CuSO 4 (100 mM) was added to the reaction mixture to give a final concentration of 4 mM, and the mixture was allowed to react at RT. After 12 h, the slide was washed three times with PBS and twice with distilled deionized water (ddH2O) to obtain BA-tosyl 1 (or compound 7 or 8)-functionalized slides.
Fluorescein-labeled lectins (Con A-FITC and WGA-FITC, 10 μM in PBS containing 5 mM CaCl2 and 5 mM MnCl2) were incubated with the glycoprotein microarray at RT for 1 h. Then, the slide was washed three times with PBS containing 10% glycerol and twice with ddH2O. Finally, the slide was dried under warm air and subjected to fluorescence analysis.
To quantitatively evaluate the protein-glycoprotein interactions, the lectin-glycoprotein complexes were analyzed by measuring the fluorescence intensities of the fluorescein tags. The fluorescence signals were directly detected by a NovaRay Microarray Scanner with an FITC filter, and were subsequently analyzed using ArrayVision software.
Glycoproteins in ddH2O containing 20% dimethyl sulfoxide (DMSO) were spotted onto the surface of the functionalized slide. To immobilize glycoproteins on the slides, an AD1500 arrayer (Biodot) was used to print samples of interest onto the functionalized slide with a spot volume of 20 nL under 85% relative humidity at 25° C. The protein sample was allowed to incubate at 25° C. for 12 h, and the glycoprotein solution was then removed by decanting the reaction mixture. The slide was incubated with ddH2O containing 10% glycerol for 30 min, followed by washing twice with the same solution (ddH2O with 10% glycerol). The slide was further treated with 10 mM imidazole solution (Tris buffer, 10 mM NaCl, pH 7.4) for 30 min to block unreacted BA-tosyl groups. The obtained glycoprotein micro-array was then washed three times by PBS (pH 7.4) and was ready for advanced use.
To evaluate the details of the immobilization mechanism, ribonuclease B (RNase B), carrying a single N-glycan chain composed of high mannose isomers, was spotted onto BA-tosyl-functionalized slides and allowed to incubate at 25° C. for 12 h. The slides were then individually treated with three different polyols in phosphate buffered saline (PBS) to competitively release the BA-tosylate. Glycerol (10%), galactose (100 mM), and sorbitol (100 mM) were used. […]

Another assay addresses T2, fetuins (Bos taurus, UniProt P12763).
T2 construct: Fetuin (from fetal calf serum) and RNase B (from bovine pancreas) were purchased from Sigma-Aldrich; purchased Sigma-Aldrich; host or cells: fetal calf serum (natural source)
T2 sequence (P12763 19-359): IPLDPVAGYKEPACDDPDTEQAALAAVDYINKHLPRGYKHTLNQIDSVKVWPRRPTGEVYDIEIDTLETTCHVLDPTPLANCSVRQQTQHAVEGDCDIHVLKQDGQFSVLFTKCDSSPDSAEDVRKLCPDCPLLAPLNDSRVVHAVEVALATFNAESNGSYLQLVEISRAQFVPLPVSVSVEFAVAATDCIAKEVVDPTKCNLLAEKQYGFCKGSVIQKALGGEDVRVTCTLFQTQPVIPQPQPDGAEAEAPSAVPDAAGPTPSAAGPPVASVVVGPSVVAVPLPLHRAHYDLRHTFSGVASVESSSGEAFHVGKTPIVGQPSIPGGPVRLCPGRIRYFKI
The assay can be described thus: Labeling of fetuins by probes, biotinylation, SDS-PAGE and Western blotting with anti-biotin antibody. Type of assay: biochemical, calf. Particulars: probe 40 μM, fetuins 20 μM, 37° C., 48 h; FIG. 3. As to the method:
A solution of fetuins (10 μM) was incubated with BA-tosyl probes 1-3 (50 μM) in PBS buffer (0.1 M, pH 8.0) at 37° C. for 48 h. Then, the unreacted BA-tosyl probes were removed by centrifugal filtration (Amicon Ultra-0.5 mL 10K) at 15,000 rpm, followed by washing five times with PBS buffer (300 μL). The resultant alkyne-tagged fetuins (11.53 μL, 26.28 μg/μL) were collected and treated with azido biotin (20 μL, 1 mM) in PBS buffer (44.47 μL, pH 8.0, 0.1 M). Then, the mixture was treated with tris(carboxyethyl)phosphine (TCEP, 0.1 M, 2 μL) and tris[(1-benzyl-1H-1,2,3-triazol-4-yl)methyl]amine (TBTA, 0.01 M, 20 μL) with gentle shaking. After homogeneous mixing, CuSO4 (0.1 M, 2 μL) was added, and the reaction mixture was shaken at RT for 12 h. The excess reactants were removed by centrifugal filtration at 15,000 rpm, and the biotinylated fetuins were obtained.
To evaluate the specificity of synthetic BA-tosyl probes, BA-tosyl 1-3, aniline-tosyl 7, and BA-alkyne 8 (40 μM) were incubated with fetuins (20 μM), blood glycoproteins carrying triantennary glycan chains with terminal N-acetylneuraminic acids, at 37° C. for 48 h. The unreacted chemical probes were then removed by centrifugal filtration or size-exclusion column chromatography to obtain the alkyne-labeled fetuins. Azido biotin was then used to form biotinylated fetuins via Cu(I)-catalyzed 1,2,3-triazole cycloaddition. […]
Background: In western blotting, separated proteins are transferred to a membrane and probed.

SMILES strings stand for the structures.

Take `C#CCCCOS(=O)(=O)c1cc(C=O)cc(C(=O)Nc2ccccc2)c1` [aniline-tosyl 7]: the “Con A-FITC signal of RNase B on probe-functionalized slides” value is reported as “very low signal intensity” on RNase B and “nearly background-level signals” at RNase B (listed as 7). Also, the “Western blot band of biotin-labeled fetuins (labeling of fetuin)” value at fetuins is “much weaker signal”.

`OCC(O)CO` [glycerol]: on RNase B, the “Con A-FITC intensity after release of BA-tosylate by polyol” value is “twice the intensity”.

Regarding `OC[C@@H](O)[C@@H](O)[C@H](O)[C@@H](O)CO` [sorbitol], the “Con A-FITC intensity after release of BA-tosylate by polyol” value on RNase B is “twice the intensity”.

The values above are taken from patent US20160123988A1, “METHOD OF TRACELESS LABELING GLYCOPROTEINS ON SURFACE AND APPLICATION THEREOF” (NATIONAL SUN YAT-SEN UNIVERSITY, priority 2014, published 2016).
